Experimental data reported in patent publication US20050054555A1, “Kahalalide compounds for use in cancer therapy” (priority 2001, published 2005).
“Also recorded” adds a separate entry of the source.

What was measured:
[1] = Phase I trial KHF-A-001-00: plasma pharmacokinetics (LC-MS/MS); type: in vivo, human
Description: Bioanalysis of KF was performed by LC-MS/MS.

[2] = test system: patients with solid tumours; assay: Phase I trial KHF-A-002-01: safety of Kahalalide F weekly infusion over 1 hour; type: in vivo, human
Source text: The rate of subject entry and escalation to the next dose level will depend upon assessment of the safety profile of patients entered at each dose level. Toxicity will be evaluated and graded according to the Common Toxicity Criteria, version 2.0.
In order to minimize the number of patients treated at the subtoxic dose levels, a single patient will be treated per dose level with 100% dose escalation in the absence of any toxicity G2 (excluding alopecia) during their first course of treatment. After the occurrence of grade 2 toxicity (excluding asthenia, alopecia, nausea and vomiting or anemia), the dose level is expanded to three patients with only 50% incremental increase in dosage in advancing to the next dose level. For the occurrence of grade 3 non-hematological toxic effects the dose level should be expanded up to six patients. This second cohort of 3 patients will be included consecutively. If the first or second patient develops dose limiting toxicities no further patients will be treated at this dose level, it will be defined as MTD and the accrual will begin at a lower dose level. If only one DLT occurs at this dose level another 3 patients will be included at the next dose level with an increase of 25% only.
The maximum tolerated dose (MTD) is defined as the dose at which at least 2 out of 3 or more than 3 patients experience DLT. However, it is possible that additional patients may experience DLT due to the timing of patient enrollment into that dose level.
The toxicity will be evaluated and clasified in grades according to the Common Toxicity Criteria (CTC) version NCI 2.0, March 1998.
Dose Limiting Toxicities (DLTs) are Defined as Follows: […]
ANC <500/mm3 for more than 5 days.
ANC <500/mm3 with a temperature of 38'5 or more.
Any other non-hematological grade 3-4 toxicity excluding: nausea, emesis without prophilaxis
G3 transaminases increase >14 days
Hypersensibility reactions

[3] = weekly 1 h infusion, all dose levels
[4] = weekly 1 h infusion, all dose levels, 19 patients evaluated
[5] = weekly 1 h infusion, all dose levels, head prints 20 patients

SMILES: C/C=C1\NC(=O)[C@H](Cc2ccccc2)NC(=O)[C@@H](C(C)C)NC(=O)[C@@H](C(C)CC)NC(=O)[C@H](NC(=O)C(NC(=O)[C@H](CCCN)NC(=O)[C@H]2CCCN2C(=O)[C@H](NC(=O)[C@@H](NC(=O)[C@@H](NC(=O)[C@H](NC(=O)CCCC(C)C)C(C)C)C(C)O)C(C)C)C(C)C)C(C)CC)C(C)OC(=O)[C@H](C(C)C)NC1=O (single isomer, unassigned) [kahalalide F]
- Maximum plasma concentrations ([1]; dose level 320 μg/m2/day): 35 to 50 ng/mL
- clearance ([1]; male, human, plasma, iv infusion over 1 h, 5 consecutive days every 3 weeks, first course, 20-320 μg/m2/day, read-out: Total plasma clearance): 267 mL/min
- half-life ([1]; male, human, plasma, iv infusion over 1 h, 5 consecutive days every 3 weeks, first course, read-out: terminal half-life (converted)): 27.6 min
- relationship between dose and AUC ([1]; whole dose range 20-320 μg/m2/day): linear relationship
- incidence of grade 4 hypertransaminasemia ([2]; 800-1200 mcg/m2/wk): all the patients had grade 4 hypertransaminasemia
- time of onset of grade 4 hypertransaminasemia after the infusion ([2]; 1200 mcg/m2 weekly): 5 h
- Worst toxicity ([2]; Level VI, dose 1000 weekly, 3 patients): Hypersensitivity; also recorded: hypertrans
- Bronchoconstriction observed ([2]; highest dose level (1000 and 1200)): two patients
- reversibility of hypertransaminasemia overall ([2]; patients remained asymptomatic): completely reversible
- reversibility of hypertransaminasemia ([2]; patients treated at 1000 and 1200): not reversible by day 8
- dose at which the DLT (grade 4 hypertransaminasemia non reversible by day 21) was identified ([2]; weekly 1 h infusion): 1200 mcg/m2
- Nonhematologic toxicity, laboratory abnormalities: Alk. phosphatase, Grade 1 [2, 3]: 27.8
- Nonhematologic toxicity, laboratory abnormalities: Alk. phosphatase, Grade 2 [2, 3]: 11.1
- Nonhematologic toxicity, laboratory abnormalities: Alk. phosphatase, Grade 3 [2, 3]: 0
- Nonhematologic toxicity, laboratory abnormalities: Alk. phosphatase, Grade 4 [2, 3]: 0
- Nonhematologic toxicity, laboratory abnormalities: Bilirubin, Grade 1 [2, 3]: 5.6
- Nonhematologic toxicity, laboratory abnormalities: Bilirubin, Grade 2 [2, 3]: 0
- Nonhematologic toxicity, laboratory abnormalities: Bilirubin, Grade 3 [2, 3]: 0
- Nonhematologic toxicity, laboratory abnormalities: Bilirubin, Grade 4 [2, 3]: 0
- Nonhematologic toxicity, laboratory abnormalities: CPK, Grade 1 [2, 3]: 36.8
- Nonhematologic toxicity, laboratory abnormalities: CPK, Grade 2 [2, 3]: 0
- Nonhematologic toxicity, laboratory abnormalities: CPK, Grade 3 [2, 3]: 0
- Nonhematologic toxicity, laboratory abnormalities: CPK, Grade 4 [2, 3]: 0
- Nonhematologic toxicity, laboratory abnormalities: Ca++ hyper, Grade 1 [2, 3]: 84.2
- Nonhematologic toxicity, laboratory abnormalities: Ca++ hyper, Grade 2 [2, 3]: 0
- Nonhematologic toxicity, laboratory abnormalities: Ca++ hyper, Grade 3 [2, 3]: 0
- Nonhematologic toxicity, laboratory abnormalities: Ca++ hyper, Grade 4 [2, 3]: 0
- Nonhematologic toxicity, laboratory abnormalities: Ca++ hypo, Grade 1 [2, 3]: 21.1
- Nonhematologic toxicity, laboratory abnormalities: Ca++ hypo, Grade 2 [2, 3]: 0
- Nonhematologic toxicity, laboratory abnormalities: Ca++ hypo, Grade 3 [2, 3]: 0
- Nonhematologic toxicity, laboratory abnormalities: Ca++ hypo, Grade 4 [2, 3]: 0
- Nonhematologic toxicity, laboratory abnormalities: Creatinine, Grade 1 [2, 3]: 31.6
- Nonhematologic toxicity, laboratory abnormalities: Creatinine, Grade 2 [2, 3]: 5.3
- Nonhematologic toxicity, laboratory abnormalities: Creatinine, Grade 3 [2, 3]: 0
- Nonhematologic toxicity, laboratory abnormalities: Creatinine, Grade 4 [2, 3]: 0
- Nonhematologic toxicity, laboratory abnormalities: GGT, Grade 1 [2, 3]: 16.7
- Nonhematologic toxicity, laboratory abnormalities: GGT, Grade 2 [2, 3]: 11.1
- Nonhematologic toxicity, laboratory abnormalities: GGT, Grade 3 [2, 3]: 5.6
- Nonhematologic toxicity, laboratory abnormalities: GGT, Grade 4 [2, 3]: 11.1
- Nonhematologic toxicity, laboratory abnormalities: GOT, Grade 1 [2, 3]: 38.9
- Nonhematologic toxicity, laboratory abnormalities: GOT, Grade 2 [2, 3]: 0
- Nonhematologic toxicity, laboratory abnormalities: GOT, Grade 3 [2, 3]: 0
- Nonhematologic toxicity, laboratory abnormalities: GOT, Grade 4 [2, 3]: 16.7
- Nonhematologic toxicity, laboratory abnormalities: GPT, Grade 1 [2, 3]: 22.2
- Nonhematologic toxicity, laboratory abnormalities: GPT, Grade 2 [2, 3]: 5.6
- Nonhematologic toxicity, laboratory abnormalities: GPT, Grade 3 [2, 3]: 0
- Nonhematologic toxicity, laboratory abnormalities: GPT, Grade 4 [2, 3]: 16.7
- Nonhematologic toxicity, laboratory abnormalities: K+ hypo, Grade 1 [2, 3]: 5.3
- Nonhematologic toxicity, laboratory abnormalities: K+ hypo, Grade 2 [2, 3]: 0
- Nonhematologic toxicity, laboratory abnormalities: K+ hypo, Grade 3 [2, 3]: 0
- Nonhematologic toxicity, laboratory abnormalities: K+ hypo, Grade 4 [2, 3]: 0
- Nonhematologic toxicity, laboratory abnormalities: Na+ hypo, Grade 1 [2, 3]: 21.1
- Nonhematologic toxicity, laboratory abnormalities: Na+ hypo, Grade 2 [2, 3]: 0
- Nonhematologic toxicity, laboratory abnormalities: Na+ hypo, Grade 3 [2, 3]: 0
- Nonhematologic toxicity, laboratory abnormalities: Na+ hypo, Grade 4 [2, 3]: 5.3
- Hematologic toxicity (worst per patient): Hemoglobin, Grade 1 [2, 4]: 57.9
- Hematologic toxicity (worst per patient): Hemoglobin, Grade 2 [2, 4]: 21.1
- Hematologic toxicity (worst per patient): Hemoglobin, Grade 3 [2, 4]: 0
- Hematologic toxicity (worst per patient): Hemoglobin, Grade 4 [2, 4]: 0
- Hematologic toxicity (worst per patient): Leukocytes, Grade 1 [2, 4]: 15.8
- Hematologic toxicity (worst per patient): Leukocytes, Grade 2 [2, 4]: 5.3
- Hematologic toxicity (worst per patient): Leukocytes, Grade 3 [2, 4]: 0
- Hematologic toxicity (worst per patient): Leukocytes, Grade 4 [2, 4]: 0
- Hematologic toxicity (worst per patient): Neutrophils, Grade 1 [2, 4]: 5.3
- Hematologic toxicity (worst per patient): Neutrophils, Grade 2 [2, 4]: 5.3
- Hematologic toxicity (worst per patient): Neutrophils, Grade 3 [2, 4]: 0
- Hematologic toxicity (worst per patient): Neutrophils, Grade 4 [2, 4]: 0
- Hematologic toxicity (worst per patient): Platelets, Grade 1 [2, 4]: 10.5
- Hematologic toxicity (worst per patient): Platelets, Grade 2 [2, 4]: 0
- Hematologic toxicity (worst per patient): Platelets, Grade 3 [2, 4]: 0
- Hematologic toxicity (worst per patient): Platelets, Grade 4 [2, 4]: 0
- Most frequently reported non-hematologic toxicities: Diarrhea, Grade 1 [2, 5]: 0
- Most frequently reported non-hematologic toxicities: Diarrhea, Grade 2 [2, 5]: 5.3
- Most frequently reported non-hematologic toxicities: Diarrhea, Grade 3 [2, 5]: 5.3
- Most frequently reported non-hematologic toxicities: Diarrhea, Grade 4 [2, 5]: 0
- Most frequently reported non-hematologic toxicities: Fatigue, Grade 1 [2, 5]: 21.1
- Most frequently reported non-hematologic toxicities: Fatigue, Grade 2 [2, 5]: 21.1
- Most frequently reported non-hematologic toxicities: Fatigue, Grade 3 [2, 5]: 0
- Most frequently reported non-hematologic toxicities: Fatigue, Grade 4 [2, 5]: 0
- Most frequently reported non-hematologic toxicities: Hypersensitivity, Grade 1 [2, 5]: 15.8
- Most frequently reported non-hematologic toxicities: Hypersensitivity, Grade 2 [2, 5]: 5.3
- Most frequently reported non-hematologic toxicities: Hypersensitivity, Grade 3 [2, 5]: 5.3
- Most frequently reported non-hematologic toxicities: Hypersensitivity, Grade 4 [2, 5]: 0
- Most frequently reported non-hematologic toxicities: Hypertension, Grade 1 [2, 5]: 0
- Most frequently reported non-hematologic toxicities: Hypertension, Grade 2 [2, 5]: 0
- Most frequently reported non-hematologic toxicities: Hypertension, Grade 3 [2, 5]: 0
- Most frequently reported non-hematologic toxicities: Hypertension, Grade 4 [2, 5]: 0
- Most frequently reported non-hematologic toxicities: Inject-site reaction, Grade 1 [2, 5]: 0
- Most frequently reported non-hematologic toxicities: Inject-site reaction, Grade 2 [2, 5]: 5.3
- Most frequently reported non-hematologic toxicities: Inject-site reaction, Grade 3 [2, 5]: 0
- Most frequently reported non-hematologic toxicities: Inject-site reaction, Grade 4 [2, 5]: 0
- Most frequently reported non-hematologic toxicities: Nausea, Grade 1 [2, 5]: 31.6
- Most frequently reported non-hematologic toxicities: Nausea, Grade 2 [2, 5]: 10.5
- Most frequently reported non-hematologic toxicities: Nausea, Grade 3 [2, 5]: 0
- Most frequently reported non-hematologic toxicities: Nausea, Grade 4 [2, 5]: 0
- Most frequently reported non-hematologic toxicities: Periph-sens neuro, Grade 1 [2, 5]: 36.8
- Most frequently reported non-hematologic toxicities: Periph-sens neuro, Grade 2 [2, 5]: 0
- Most frequently reported non-hematologic toxicities: Periph-sens neuro, Grade 3 [2, 5]: 5.3
- Most frequently reported non-hematologic toxicities: Periph-sens neuro, Grade 4 [2, 5]: 0
- Most frequently reported non-hematologic toxicities: Vomiting, Grade 1 [2, 5]: 10.5
- Most frequently reported non-hematologic toxicities: Vomiting, Grade 2 [2, 5]: 5.3
- Most frequently reported non-hematologic toxicities: Vomiting, Grade 3 [2, 5]: 0
- Most frequently reported non-hematologic toxicities: Vomiting, Grade 4 [2, 5]: 0
- dose limiting toxicity ([2]; weekly schedule): grade 4 hypertransaminasemia
- time of hypertransaminasemia peak/appearance after the infusion ([2]; weekly schedule): 4 to 5 h
